The values that follow come from patent publication US11827627B2, “N-(hydroxyalkyl (hetero)aryl) tetrahydrofuran carboxamides as modulators of sodium channels” (VERTEX PHARMACEUTICALS INCORPORATED, priority 2021, dated 2023).

human NaV 1.8, sequence (Q9Y5Y9 126-1722 limits assumed): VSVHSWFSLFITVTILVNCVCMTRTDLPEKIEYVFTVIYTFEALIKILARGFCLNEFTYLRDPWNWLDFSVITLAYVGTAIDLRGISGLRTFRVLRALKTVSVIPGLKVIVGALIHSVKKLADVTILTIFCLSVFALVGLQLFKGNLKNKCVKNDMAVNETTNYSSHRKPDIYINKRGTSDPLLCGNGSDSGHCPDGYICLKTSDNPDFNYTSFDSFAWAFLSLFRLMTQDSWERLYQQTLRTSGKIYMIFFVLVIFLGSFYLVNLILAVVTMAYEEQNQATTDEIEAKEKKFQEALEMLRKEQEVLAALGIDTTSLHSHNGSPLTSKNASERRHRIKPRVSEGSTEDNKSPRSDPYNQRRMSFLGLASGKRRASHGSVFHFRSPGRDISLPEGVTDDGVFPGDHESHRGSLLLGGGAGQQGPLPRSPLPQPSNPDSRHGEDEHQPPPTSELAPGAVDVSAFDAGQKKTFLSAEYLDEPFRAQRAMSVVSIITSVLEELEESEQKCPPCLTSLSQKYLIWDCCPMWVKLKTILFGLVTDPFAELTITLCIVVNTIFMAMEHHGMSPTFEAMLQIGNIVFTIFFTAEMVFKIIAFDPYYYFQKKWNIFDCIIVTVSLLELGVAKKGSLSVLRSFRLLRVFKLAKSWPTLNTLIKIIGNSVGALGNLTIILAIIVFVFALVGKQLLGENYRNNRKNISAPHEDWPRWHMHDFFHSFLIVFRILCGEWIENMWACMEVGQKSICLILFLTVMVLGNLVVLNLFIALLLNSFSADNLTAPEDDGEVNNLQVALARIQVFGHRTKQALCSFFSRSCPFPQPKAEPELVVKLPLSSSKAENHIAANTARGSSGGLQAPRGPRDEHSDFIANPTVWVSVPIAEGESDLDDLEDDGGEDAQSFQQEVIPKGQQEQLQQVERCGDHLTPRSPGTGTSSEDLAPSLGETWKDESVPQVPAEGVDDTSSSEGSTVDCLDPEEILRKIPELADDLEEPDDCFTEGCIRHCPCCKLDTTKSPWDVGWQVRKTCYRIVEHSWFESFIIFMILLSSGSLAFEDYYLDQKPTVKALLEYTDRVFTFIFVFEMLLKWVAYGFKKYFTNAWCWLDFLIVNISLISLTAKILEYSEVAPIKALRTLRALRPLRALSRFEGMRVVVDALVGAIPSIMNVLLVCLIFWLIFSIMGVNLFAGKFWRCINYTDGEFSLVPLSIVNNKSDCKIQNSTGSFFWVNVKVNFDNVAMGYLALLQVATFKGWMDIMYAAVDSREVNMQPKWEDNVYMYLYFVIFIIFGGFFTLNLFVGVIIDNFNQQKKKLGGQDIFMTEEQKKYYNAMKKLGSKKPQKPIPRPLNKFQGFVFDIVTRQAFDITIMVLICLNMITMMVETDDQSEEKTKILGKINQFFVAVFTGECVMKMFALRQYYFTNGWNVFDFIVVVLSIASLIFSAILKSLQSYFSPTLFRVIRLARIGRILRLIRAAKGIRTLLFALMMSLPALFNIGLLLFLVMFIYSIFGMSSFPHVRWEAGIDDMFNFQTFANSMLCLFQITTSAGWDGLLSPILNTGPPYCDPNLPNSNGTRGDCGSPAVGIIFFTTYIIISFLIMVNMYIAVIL

The assay concerns the target human NaV 1.8 (Homo sapiens, UniProt Q9Y5Y9). The assay can be described thus: E-VIPR assay detecting and measuring NaV inhibition properties. The format is cell-based. The following applies: HEK cells expressing a truncated form of human NaV 1.8; electrical stimulation, membrane potential FRET dyes. An outline of the steps:
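HEK cells expressing truncated full-activity NaV 1.8, co-transduced with KIR2.1 BacMam, seeded 16-20 h before assay. Electrical stimulation with FRET membrane-potential dyes (CC2-DMPE/DiSBAC6(3)) in HEPES-buffered bath solutions; 25% human serum final.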
Take `COc1c(C2C(C(=O)Nc3ccc(CO)nc3)OC(C)(C(F)(F)F)C2C)cccc1C(F)(F)F` (single isomer, unassigned) [Compound 81]: the IC50 (usually the midpoint of a concentration-inhibition curve) was at least 1000 nM.
As for `COc1c(C2C(C(=O)Nc3ccc(CO)nc3)OC(C)(C(F)(F)F)C2C)cccc1C(F)(F)F` (single isomer, unassigned) [Compound 82], the figure is under 10 nM.
As for `COc1c(C2C(C(=O)Nc3ccc(CO)nc3)OC(C)(C(F)(F)F)C2C)ccc(C(F)F)c1F` (single isomer, unassigned) [Compound 90], the figure is at least 1000 nM; as for `COc1c(C2C(C(=O)Nc3ccc(CO)nc3)OC(C)(C(F)(F)F)C2C)ccc(C(F)F)c1F` (single isomer, unassigned) [Compound 91], 10 to 100 nM; as for `COc1nc(C(F)F)ccc1[C@H]1[C@H](C(=O)Nc2ccc(CO)nc2)O[C@@](C)(C(F)(F)F)[C@H]1C` (stereo in doubt) [Compound 88, rel-(2R,3S,4S,5R)-3-(6-(difluoromethyl)-2-methoxypyridin-3-yl)-N-(6-(hydroxymethyl)pyridin-3-yl)-4,5-dimethyl-5-(trifluoromethyl)tetrahydrofuran-2-carboxamide], 100 to 1000 nM.
With `COc1nc(C(F)F)ccc1[C@@H]1[C@@H](C(=O)Nc2ccc(CO)nc2)O[C@](C)(C(F)(F)F)[C@@H]1C` (stereo in doubt) [Compound 89, rel-(2S,3R,4R,5S)-3-(6-(difluoromethyl)-2-methoxypyridin-3-yl)-N-(6-(hydroxymethyl)pyridin-3-yl)-4,5-dimethyl-5-(trifluoromethyl)tetrahydrofuran-2-carboxamide] the figure was at least 1000 nM; with `CCOc1c([C@H]2[C@H](C(=O)Nc3ccc([C@H](O)CO)nc3)O[C@@](C)(C(F)(F)F)[C@H]2C)ccc(F)c1F` [Compound 6, (2R,3S,4S,5R)-N-(6-((S)-1,2-dihydroxyethyl)pyridin-3-yl)-3-(2-ethoxy-3,4-difluorophenyl)-4,5-dimethyl-5-(trifluoromethyl)tetrahydrofuran-2-carboxamide], under 10 nM.
Consider `CCOc1c([C@H]2[C@H](C(=O)Nc3ccc([C@@H](O)CO)nc3)O[C@@](C)(C(F)(F)F)[C@H]2C)ccc(F)c1F` [Compound 7, (2R,3S,4S,5R)-N-(6-((R)-1,2-dihydroxyethyl)pyridin-3-yl)-3-(2-ethoxy-3,4-difluorophenyl)-4,5-dimethyl-5-(trifluoromethyl)tetrahydrofuran-2-carboxamide], for which the IC50 was under 10 nM.
In turn, `[2H]C([2H])([2H])Oc1c([C@H]2[C@H](C(=O)Nc3ccc([C@@H](O)CO)nc3)O[C@@](C)(C(F)(F)F)[C@H]2C)ccc(F)c1F` [Compound 8, (2R,3S,4S,5R)-3-(3,4-difluoro-2-(methoxy-d3)phenyl)-N-(6-((R)-1,2-dihydroxyethyl)pyridin-3-yl)-4,5-dimethyl-5-(trifluoromethyl)tetrahydrofuran-2-carboxamide] came in with a half-maximal inhibitory concentration (IC50) of under 10 nM.
As for `CC(C)Oc1c(C2C(C(=O)Nc3cnc(C(O)CO)nc3)OC(C)(C(F)(F)F)C2C)ccc(F)c1F` (centres unmarked) [Compound 9], the figure is 10 to 100 nM; as for `COc1c([C@H]2[C@H](C(=O)Nc3ccc(CO)nc3)O[C@@](C)(C(F)(F)F)[C@H]2C)ccc(F)c1F` [Compound 14, (2R,3S,4S,5R)-3-(3,4-difluoro-2-methoxyphenyl)-N-(6-(hydroxymethyl)pyridin-3-yl)-4,5-dimethyl-5-(trifluoromethyl)tetrahydrofuran-2-carboxamide], under 10 nM; as for `COc1c([C@H]2[C@H](C(=O)Nc3cnc(CO)nc3)O[C@@](C)(C(F)(F)F)[C@H]2C)ccc(F)c1F` [Compound 15, (2R,3S,4S,5R)-3-(3,4-difluoro-2-methoxyphenyl)-N-(2-(hydroxymethyl)pyrimidin-5-yl)-4,5-dimethyl-5-(trifluoromethyl)tetrahydrofuran-2-carboxamide], under 10 nM.
Take `COc1c([C@H]2[C@H](C(=O)Nc3ccc(CO)nc3)O[C@@](C)(C(F)(F)F)[C@H]2C)ccc(OC(F)F)c1F` [Compound 18, (2R,3S,4S,5R)-3-(4-(difluoromethoxy)-3-fluoro-2-methoxyphenyl)-N-(6-(hydroxymethyl)pyridin-3-yl)-4,5-dimethyl-5-(trifluoromethyl)tetrahydrofuran-2-carboxamide]: the half-inhibitory concentration (IC50) lay in the range of 10 to 100 nM.
Consider `COc1c([C@H]2[C@H](C(=O)Nc3cnc(CO)nc3)O[C@@](C)(C(F)(F)F)[C@H]2C)ccc(OC(F)F)c1F` [Compound 19, (2R,3S,4S,5R)-3-(4-(difluoromethoxy)-3-fluoro-2-methoxyphenyl)-N-(2-(hydroxymethyl)pyrimidin-5-yl)-4,5-dimethyl-5-(trifluoromethyl)tetrahydrofuran-2-carboxamide], for which the concentration for half-maximal inhibition (IC50) fell in the range of 10 to 100 nM.
With `C[C@H]1[C@@H](c2ccc(F)c(F)c2O)[C@H](C(=O)Nc2ccc([C@@H](O)CO)nc2)O[C@@]1(C)C(F)(F)F` [Compound 36, (2R,3S,4S,5R)-3-(3,4-difluoro-2-hydroxyphenyl)-N-(6-((R)-1,2-dihydroxyethyl)pyridin-3-yl)-4,5-dimethyl-5-(trifluoromethyl)tetrahydrofuran-2-carboxamide] the figure was 100 to 1000 nM; with `C[C@H]1[C@@H](c2ccc(F)c(F)c2OCCF)[C@H](C(=O)Nc2ccc([C@@H](O)CO)nc2)O[C@@]1(C)C(F)(F)F` [Compound 37, (2R,3S,4S,5R)-3-(3,4-difluoro-2-(2-fluoroethoxy)phenyl)-N-(6-((R)-1,2-dihydroxyethyl)pyridin-3-yl)-4,5-dimethyl-5-(trifluoromethyl)tetrahydrofuran-2-carboxamide], under 10 nM.
With `C[C@H]1[C@@H](c2ccc(F)c(F)c2OCC(F)F)[C@H](C(=O)Nc2ccc([C@@H](O)CO)nc2)O[C@@]1(C)C(F)(F)F` [Compound 38, (2R,3S,4S,5R)-3-(2-(2,2-difluoroethoxy)-3,4-difluorophenyl)-N-(6-((R)-1,2-dihydroxyethyl)pyridin-3-yl)-4,5-dimethyl-5-(trifluoromethyl)tetrahydrofuran-2-carboxamide] the figure was under 10 nM; with `C[C@H]1[C@@H](c2ccc(F)c(F)c2O)[C@H](C(=O)Nc2cnc(CO)nc2)O[C@@]1(C)C(F)(F)F` [Compound 39, (2R,3S,4S,5R)-3-(3,4-difluoro-2-hydroxyphenyl)-N-(2-(hydroxymethyl)pyrimidin-5-yl)-4,5-dimethyl-5-(trifluoromethyl)tetrahydrofuran-2-carboxamide], at least 1000 nM; with `COc1c([C@H]2[C@H](C(=O)Nc3ccc([C@@H](O)CO)[n+]([O-])c3)O[C@@](C)(C(F)(F)F)[C@H]2C)ccc(F)c1F` [Compound 60, 5-((2R,3S,4S,5R)-3-(3,4-difluoro-2-methoxyphenyl)-4,5-dimethyl-5-(trifluoromethyl)tetrahydrofuran-2-carboxamido)-2-((R)-1,2-dihydroxyethyl)pyridine 1-oxide], under 10 nM.
With `COc1c([C@H]2[C@H](C(=O)Nc3cnc(CO)c(F)c3)O[C@@](C)(C(F)(F)F)[C@H]2C)ccc(F)c1F` [Compound 83, (2R,3S,4S,5R)-3-(3,4-difluoro-2-methoxyphenyl)-N-(5-fluoro-6-(hydroxymethyl)pyridin-3-yl)-4,5-dimethyl-5-(trifluoromethyl)tetrahydrofuran-2-carboxamide] the figure was under 10 nM.
